{
  "source": "patent US8563067B2",
  "about": "“Extended shelf life and bulk transport of perishable organic liquids with low pressure carbon dioxide” (Cornell Research Foundation, Inc., priority 2004, dated 2013)",
  "key": {"[1]": {"experiment": "pH of raw milk after CO2 pressure treatment (Example 1)", "type": "physicochemical", "details": "for pH after treatment (6.6 before treatment): 6.1° C., 4 days; for pH of milk samples: 10° C.", "method": "The pH of the treated and control milk samples (as measured at atmospheric pressure) was 6.6 to 5.9 at CO2 pressures≦516 kPa and 5.7 when treated at pressures≧516 kPa and 20° C. The pH of the treated and control milk samples, when treated at 10° C., was 5.5 at CO2 pressures≦516 kPa and 5.8 when treated at pressures≧516 kPa."}, "Lactobacillus spp. [2]": {"test_system": "Lactobacillus spp.", "details": "30 and 45 ppm CO2 (Espie and Madden, 1997); cited from earlier work"}, "[3]": {"test_system": "milk microbiota (SPC, aerobic microorganisms)", "details": "cited from earlier work; for extension in storage life: 30 ppm CO2 (King and Mabbitt, 1982)"}, "Lactobacillus spp. [4]": {"test_system": "Lactobacillus spp.", "experiment": "Total Lactobacillus spp. on acidified MRS agar, raw milk under CO2 pressure (Example 1)", "type": "cell-based", "details": "current study", "method": "Raw milk from the T&R Center was monitored for changes in aerobic bacteria, gram-negative bacteria and total Lactobacillus spp. as follows: CO2 pressures of 0 (control), 68, 172, 344, 516 and 689 kPa, at 6.1° C. for 4-days. SPC, gram-negative bacteria and total Lactobacillus spp. were enumerated before (day 0) and after (day 4) treatment. Gram negative bacteria were enumerated on MacConkey Agar (Difco Manual, Becton Dickinson & Co., Sparks, Md.), a selective and differential media which can be used to discriminate between lactose fermenting and non-lactose fermenting gram-negative bacteria. Use of this media allows a one-step method of obtaining estimates of both coliform and non-coliform gram negative bacteria. Coliform bacteria may include species of Escherichia, Klebsiella and Enterobacter, potential pathogens and/or spoilage organisms. Non-coliform gram negative bacteria may include spoilage organisms such as pseudomonads or potential pathogens such as Salmonella spp. or Shigella spp. […]\nFor all microbiological assays, milk sample aliquots of 1 ml were used in dilution series. […] Representative and distinctive suspect colonies were gram stained, and confirmed gram positive bacilli colonies were counted as an estimate of total Lactobacillus spp."}, "[5]": {"test_system": "SPC (total microbial growth) in whole raw milk", "experiment": "SPC of bulk raw milk in CO2 pressurized tank container (Example 2)", "type": "cell-based", "details": "bottom of the tank, entire 17 day study", "from_the_text": "The apparatus pressurizing and holding raw milk samples consisted of a 5300 U.S. gallon (20,000 liter) food grade, insulated, pressure vessel shipping container of the model HO4 type utilized by Agmark Foods, Inc. Compressed and filtered CO2 from high pressure tank was used, including a Praxair inline 3A sparger. The Agmark shipping container was sanitized on Aug. 4, 2004. The following day, the tank was pre-chilled with a spray of CO2 and filled with 3,291 U.S. gallons of fresh raw milk obtained from the Cornell University Teaching and Research Center Bovine Heard (T&R Center; Dryden, N.Y.) on Aug. 5, 2004. The raw milk from the T&R Center was received less than 12 hours after milking and was introduced from a holding tank into the pressure vessel at a temperature of approximately 1 to 2° C. Prior to filling the pressure vessel, the vessel was sealed and pressurized with carbon dioxide to a pressure of 25 psi (172.5 kPa). Milk was pumped into the tank through the discharge valve at the rear of the tank and CO2 was injected into the flow of the milk with an inline Praxair 3A sparger at a rate sufficient to infuse approximately 2000 parts per million at a gas flow rate of approximately 16 cubic feet per minute. The raw milk was pumped into the vessel at a flow rate of 70 to 80 gallons per minute with flowing CO2 under a 40 psi line pressure and 25 psi tank pressure. […]"}},
  "note": "Read-outs that look alike come from different tables or passages of the source.",
  "data": [
    {"smiles": "O=C=O", "note": "[CO2, carbon dioxide]", "values": [
      {"measurement": "pH after treatment (6.6 before treatment)", "setting": "[1]; 68 kPa", "result": 5.9},
      {"measurement": "pH after treatment (6.6 before treatment)", "setting": "[1]; 344 kPa", "result": 5.8},
      {"measurement": "pH after treatment (6.6 before treatment)", "setting": "[1]; 516 kPa", "result": 5.5},
      {"measurement": "pH of treated milk (initial value 6.6)", "setting": "[1]; 689 kPa, 4° C., end of days 4, 6, 8 and 9", "result": 5.5},
      {"measurement": "pH of milk samples", "setting": "[1]; CO2 pressures ≦516 kPa", "result": 5.5},
      {"measurement": "pH of milk samples", "setting": "[1]; pressures ≧516 kPa", "result": 5.8},
      {"measurement": "pH of milk samples (measured at atmospheric pressure)", "setting": "[1]; pressures ≧516 kPa, 20° C.", "result": 5.7},
      {"measurement": "effect on the growth of Lactobacillus spp.", "setting": "Lactobacillus spp. [2]", "result": "no effect"},
      {"measurement": "SPC lower compared to control milk", "setting": "[3]; 20-30 pmm dissolved CO2, 4 days at 7° C. (Mabbitt, 1982)", "result": 3, "unit": "log10 cfu/ml"},
      {"measurement": "decrease in bulk raw milk microbiota", "setting": "[3]; 3997 kPa (or 5800 psi) CO2, ≧40° C., 30 min (Calvo and Bacones, 2001)", "result": 2, "unit": "log10 cfu/ml"},
      {"measurement": "reduction in aerobic microorganisms in whole milk", "setting": "[3]; 6044 kPa CO2, 45° C., 24 h (Erkman, 2000)", "result": 6, "unit": "log10 cfu/ml"},
      {"measurement": "reduction", "setting": "[3]; 14598 kPa CO2, 25° C., 5-h (Erkman, 1997)", "result": 8, "unit": "log10 cfu/ml"},
      {"measurement": "reduction of bacterial growth in raw milk", "setting": "[3]; addition of CO2, storage at 6.7° C. for 48 h (Shipe et al., 1978)", "result": 50, "unit": "%"},
      {"measurement": "extension in storage life", "setting": "[3]; good quality milk (10^3 cfu/ml)", "result": 3, "unit": "days"},
      {"measurement": "extension in storage life", "setting": "[3]; poor quality milk (10^5 cfu/ml)", "result": 1.2, "unit": "days"},
      {"measurement": "populations of Lactobacillus after CO2 pressure treatment", "setting": "Lactobacillus spp. [4]", "result": "decreased"},
      {"measurement": "bacterial levels versus quality limit of 5 log cfu/ml SPC", "setting": "[5]", "result": "did not reach the limit"}
    ]}
  ]
}
